Test results as given in patent US20240182495A1, “ANTIBACTERIAL COMPOUNDS” (JANSSEN SCIENCES IRELAND UNLIMITED COMPANY, priority 2021, published 2024).
Converted amounts (≈) assume the structure as drawn. Like-named read-outs stand apart in the source and are kept apart here.

What was measured:
[1] = test system: Mycobacterium tuberculosis strain (EH4.0, GFP-expressing; Test 2: H37Rv); experiment: MIC determination against M. tuberculosis, Test 1 (and/or Test 2); type: cell-based; conditions: 7 days incubation, fluorescence; for IC50: Mycobacterium tuberculosis, H37RV, 168 h
[2] = Chemical stability testing in DMSO, ACN/H2O, ACN/0.1N HCl, ACN/0.1N NaOH (% by LCMS); type: physicochemical
Experimental: Preliminary Protocol • Add 3 μl of a 10 mM DMSO stock solution to 1 ml of the following solvents in a 1.5 ml HPLC vial. • DMSO (reference solution) • H2O/Acetonitril 1/1 (assay solution) • 0.1N HCl/Acetonitril 1/1 (assay solution) • Mix well, […] LCMS • Compare the chromatograms of the two assay solutions with the reference solution and report the additional peaks as degradation peaks

in vitro = conditions: mouse, hepatocytes
[3] = test system: CYPs (all isoforms, or the isoforms not named for that compound); experiment: CYP cocktail inhibition, all / other isoforms; type: in vitro ADME; conditions: read-out: CYPS IC50 (all / others)
Excerpt: (§1) The compounds of the invention/examples may have advantages associated with in vitro potency, kill kinetics (i.e. bactericidal effect) in vitro, PK properties, food effect, safety/toxicity (including liver toxicity, coagulation, 5-LO oxygenase), metabolic stability, Ames II negativity, MINT negativity, aqueous based solubility (and ability to formulate) and/or cardiovascular effect e.g. on animals (e.g. anesthetized guinea pig). Data that is generated/calculated may be obtained using standard methods/assays, for instance that are available in the literature or which may be performed by a supplier (e.g. Microsomal Stability Assay—Cyprotex, Mitochondrial toxicity (Glu/Gal) assay—Cyprotex, as well as literature CYP cocktail inhibition assays). GSH can be measured (reactive metabolites, […]) to observe if a dihydrodiol is observed by LCMS (fragmentation ions), which would correspond to a dihydroxylation on the core heterocycle.

2C19 = 2C19 (Homo sapiens, UniProt P33261); experiment: CYP cocktail inhibition, 2C19; type: in vitro ADME; conditions: read-out: CYPS IC50 2C19
Sequence of 2C19 (P33261 whole entry): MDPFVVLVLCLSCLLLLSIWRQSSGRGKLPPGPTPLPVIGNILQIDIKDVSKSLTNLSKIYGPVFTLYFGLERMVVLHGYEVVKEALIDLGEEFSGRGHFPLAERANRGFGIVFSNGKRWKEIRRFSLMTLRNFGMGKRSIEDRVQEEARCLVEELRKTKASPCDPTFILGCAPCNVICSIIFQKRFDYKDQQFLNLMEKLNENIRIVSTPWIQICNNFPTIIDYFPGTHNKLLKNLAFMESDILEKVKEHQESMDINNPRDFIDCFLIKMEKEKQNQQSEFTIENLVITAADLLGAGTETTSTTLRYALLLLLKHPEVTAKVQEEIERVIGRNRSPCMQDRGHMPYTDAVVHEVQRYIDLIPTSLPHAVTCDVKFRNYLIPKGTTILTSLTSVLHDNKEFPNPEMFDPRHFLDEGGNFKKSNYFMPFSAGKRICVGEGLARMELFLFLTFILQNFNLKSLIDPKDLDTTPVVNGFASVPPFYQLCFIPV
Excerpt: as §1

[4] = Mitochondrial toxicity (Glu/Gal) assay; type: cell-based; conditions: for Glu/Gal: Gal: galactose medium; for Glu/Gal: Glu: glucose medium; for all read-outs here: unit not given here
Excerpt: as §1

AMES II = conditions: score
Excerpt: as §1

physchem [5] = type: physicochemical
Excerpt: as §1

hERG = hERG (Homo sapiens, UniProt Q12809); experiment: sync hERG; type: cell-based
Sequence of hERG (Q12809 whole entry): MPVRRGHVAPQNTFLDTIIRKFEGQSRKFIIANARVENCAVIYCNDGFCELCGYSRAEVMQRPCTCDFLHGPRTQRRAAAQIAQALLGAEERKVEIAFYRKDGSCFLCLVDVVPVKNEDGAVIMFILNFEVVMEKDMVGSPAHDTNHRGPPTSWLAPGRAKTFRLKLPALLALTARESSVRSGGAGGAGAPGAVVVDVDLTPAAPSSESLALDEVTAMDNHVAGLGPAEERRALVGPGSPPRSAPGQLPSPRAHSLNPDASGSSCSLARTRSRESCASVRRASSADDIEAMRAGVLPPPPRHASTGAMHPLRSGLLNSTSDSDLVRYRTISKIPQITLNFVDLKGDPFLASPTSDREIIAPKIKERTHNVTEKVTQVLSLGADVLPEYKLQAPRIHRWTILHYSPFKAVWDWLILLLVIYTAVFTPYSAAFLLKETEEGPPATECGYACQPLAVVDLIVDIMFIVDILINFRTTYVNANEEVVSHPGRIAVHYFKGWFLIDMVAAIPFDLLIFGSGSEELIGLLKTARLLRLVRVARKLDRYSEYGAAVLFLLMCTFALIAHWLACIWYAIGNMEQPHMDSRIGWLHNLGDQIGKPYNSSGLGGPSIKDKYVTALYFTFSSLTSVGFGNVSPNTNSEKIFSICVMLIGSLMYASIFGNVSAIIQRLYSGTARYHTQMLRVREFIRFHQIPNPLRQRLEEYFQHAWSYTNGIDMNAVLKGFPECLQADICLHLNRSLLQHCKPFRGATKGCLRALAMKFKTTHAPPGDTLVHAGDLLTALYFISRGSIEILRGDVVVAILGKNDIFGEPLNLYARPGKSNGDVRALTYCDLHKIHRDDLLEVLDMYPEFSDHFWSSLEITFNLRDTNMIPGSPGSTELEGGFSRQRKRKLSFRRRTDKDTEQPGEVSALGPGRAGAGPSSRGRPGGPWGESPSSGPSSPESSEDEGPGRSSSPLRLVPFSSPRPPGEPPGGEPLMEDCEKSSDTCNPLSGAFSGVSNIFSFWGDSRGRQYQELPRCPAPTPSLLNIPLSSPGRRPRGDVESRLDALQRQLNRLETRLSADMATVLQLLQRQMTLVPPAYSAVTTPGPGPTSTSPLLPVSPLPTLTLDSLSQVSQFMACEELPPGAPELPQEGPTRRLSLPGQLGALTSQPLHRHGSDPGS

[6] = LM Clint (microsomal stability), human; type: in vitro ADME
Excerpt: as §1

physchem [7] = experiment: physchem
2C9 = 2C9 (Homo sapiens, UniProt P11712); experiment: CYP cocktail inhibition, 2C9; type: in vitro ADME; conditions: read-out: CYPS IC50 2C9
Sequence of 2C9 (P11712 whole entry): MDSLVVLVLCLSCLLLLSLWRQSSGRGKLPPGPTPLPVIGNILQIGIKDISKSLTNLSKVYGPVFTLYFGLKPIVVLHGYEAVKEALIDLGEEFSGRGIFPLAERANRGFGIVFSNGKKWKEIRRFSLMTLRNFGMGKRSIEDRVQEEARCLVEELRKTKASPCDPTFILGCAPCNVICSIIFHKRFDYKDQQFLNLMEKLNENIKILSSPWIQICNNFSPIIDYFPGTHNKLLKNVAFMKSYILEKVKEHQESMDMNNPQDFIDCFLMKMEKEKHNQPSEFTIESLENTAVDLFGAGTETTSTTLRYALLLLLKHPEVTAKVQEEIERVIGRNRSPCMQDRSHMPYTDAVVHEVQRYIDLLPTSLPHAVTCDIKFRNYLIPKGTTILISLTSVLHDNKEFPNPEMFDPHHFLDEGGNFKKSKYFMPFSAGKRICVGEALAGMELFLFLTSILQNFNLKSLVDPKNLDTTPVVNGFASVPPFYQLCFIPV
Excerpt: as §1

[8] = LM Clint (microsomal stability), mouse; type: in vitro ADME
Excerpt: as §1

MDCK = MDCK permeability / efflux; conditions: A to B with inhibitor; note: unit not given here
[9] = Hep t1/2 (hepatocyte stability), mouse; conditions: hepatocytes
2C8 = target: T1, 2C8 (Homo sapiens, UniProt P10632); experiment: CYP cocktail inhibition, 2C8; type: in vitro ADME; conditions: read-out: CYPS IC50 2C8
T1 sequence (P10632 1-490): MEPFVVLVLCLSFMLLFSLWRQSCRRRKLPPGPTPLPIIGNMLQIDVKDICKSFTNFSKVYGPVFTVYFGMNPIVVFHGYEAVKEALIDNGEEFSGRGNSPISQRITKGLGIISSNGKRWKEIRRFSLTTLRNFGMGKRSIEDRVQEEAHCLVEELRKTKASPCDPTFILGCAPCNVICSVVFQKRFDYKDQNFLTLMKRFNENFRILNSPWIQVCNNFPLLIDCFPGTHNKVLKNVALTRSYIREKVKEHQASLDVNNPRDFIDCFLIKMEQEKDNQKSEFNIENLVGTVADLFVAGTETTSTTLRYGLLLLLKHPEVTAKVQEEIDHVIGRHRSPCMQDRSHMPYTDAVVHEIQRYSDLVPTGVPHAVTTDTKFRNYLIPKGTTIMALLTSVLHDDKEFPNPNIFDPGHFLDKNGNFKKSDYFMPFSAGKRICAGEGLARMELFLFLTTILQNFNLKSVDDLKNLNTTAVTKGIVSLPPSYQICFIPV
Excerpt: as §1

M. tuberculosis H37Rv = conditions: strain H37Rv, inside macrophages; cited from earlier work
[10] = pH 2, simulated gastric fluid, thermodynamic from solid

In the case of `Cc1cnc2nc(C3CC3)c(C(=O)NCc3ccc(-c4nc5n(n4)CCN(S(=O)(=O)C(F)(F)F)C5)cc3)n2c1` [Compound 42], the IC50 [1] is reported as 0.00501 µM, the “chemical stability (% by LCMS)” value ([2]; 48 h, 30 μM) is reported as 100% and the “chemical stability (% by LCMS)” value ([2]; 48 h, 30 μM, pH 1.6) is reported as 100%.

With `CCc1nc2ncc(C)cn2c1C(=O)NCc1ccc(-c2cc3n(n2)CCN(S(=O)(=O)C(F)(F)F)C3)cc1` [Compound 44] the IC50 [1] was 0.00219 µM, the “chemical stability (% by LCMS)” value ([2]; 48 h, 30 μM) was 100% and the “chemical stability (% by LCMS)” value ([2]; 48 h, 30 μM, pH 1.6) was 100%.

In the case of `CCc1nc2ncc(C)cn2c1C(=O)NCc1ccc(-c2nc3n(n2)CCN(S(=O)(=O)N2CCCC2)C3)cc1` [Compound 47], the IC50 [1] is reported as 0.02 µM, the “chemical stability (% by LCMS)” value ([2]; 48 h, 30 μM) is reported as 99% and the “chemical stability (% by LCMS)” value ([2]; 48 h, 30 μM, pH 1.6) is reported as 100%.

For `CCc1nc2ncc(C)cn2c1C(=O)NCCc1ccc(-c2nc3n(n2)CCN(S(=O)(=O)C(F)(F)F)C3)cc1` [Compound 66], the pIC50 [1] was 6.57, the “chemical stability (% by LCMS)” value ([2]; ACN/0.1N HCl (pH 1.6; 48 hr, rt)) was 98% and the “chemical stability (% by LCMS)” value ([2]; ACN/H2O (48 hr, rt)) was 98%. For the same compound, the “chemical stability (% by LCMS)” value ([2]; DMSO (0 hr, rt)) was 91%.

For `CCc1nc2ccc(C)cn2c1C(=O)NCc1ccc(-c2cn3c(n2)CN(S(=O)(=O)C(F)(F)F)CC3)cc1` [Compound 79], the half-life (in vitro) was 43.3 min, the IC50 ([3]; human) was > 20 µM and the IC50 (2C19) was 14.4 µM. For the same compound, the “Glu/Gal: Gal” value [4] was > 200, the “Glu/Gal: Glu” value [4] was > 200 and the IC50 [1] was 0.00676 µM. For the same compound, the “chemical stability (% by LCMS)” value ([2]; 0 h, 30 μM) was 100%, the “chemical stability (% by LCMS)” value ([2]; 48 h, 30 μM) was 100% and the “chemical stability (% by LCMS)” value ([2]; 48 h, 30 μM, pH 1.6) was 100%. For the same compound, the “AMES II” value (AMES II) was 1, the solubility thermodynamic (physchem [5]; [10]) was 574 µM (≈ 314 µg/mL) and the solubility thermodynamic (physchem [5]; pH 4, aqueous buffer) was 0.062 µM (≈ 0.0339 µg/mL). For the same compound, the IC50 (hERG) was 30.2 µM, the microsomal CLint ([6]; human, microsomes) was 39.8 µL/min/mg and the solubility (physchem [7]; fassif) was 5.6 µM (≈ 3.06 µg/mL). The solubility (physchem [7]; fessif) was 29.3 µM (≈ 16 µg/mL), the IC50 (2C9) was 17.7 µM and the microsomal CLint ([8]; mouse, microsomes) was 13.2 µL/min/mg. For the same compound, the “MDCK AB+inh” value (MDCK) was 42.7.

With `CCc1nc2ccc(C)cn2c1C(=O)NCc1ccc(-c2cc3n(n2)CCN(S(=O)(=O)C(F)(F)F)C3)cc1` [Compound 81] the IC50 [1] was 0.0204 µM, the “chemical stability (% by LCMS)” value ([2]; 0 h, 30 μM) was 95% and the “chemical stability (% by LCMS)” value ([2]; 48 h, 30 μM) was 100%. For the same compound, the “chemical stability (% by LCMS)” value ([2]; 48 h, 30 μM, pH 1.6) was 100%.

With `CCc1nc2ncc(C)cn2c1C(=O)NCc1ccc(-c2cc3n(n2)CCN(S(=O)(=O)C(F)(F)F)C3)c(F)c1` [Compound 82] the half-life [9] was 16.5 min, the IC50 [3] was > 19.5 µM and the “Glu/Gal: Gal” value [4] was > 25. The “Glu/Gal: Glu” value [4] was > 25, the IC50 (2C8) was 10.6 µM and the IC50 [1] was 0.00282 µM. For the same compound, the “chemical stability (% by LCMS)” value ([2]; 48 h, 30 μM) was 100%, the “chemical stability (% by LCMS)” value ([2]; 48 h, 30 μM, pH 1.6) was 100% and the “AMES II” value (AMES II) was 1. For the same compound, the solubility thermodynamic (physchem [5]; [10]) was 12.3 µM (≈ 6.96 µg/mL), the solubility thermodynamic (physchem [5]; pH 4, aqueous buffer) was < 0.02 µM and the IC50 (hERG) was 20.4 µM. The microsomal CLint ([6]; h (human) liver microsomes, read-out: LM Clint) was 231 µL/min/mg, the solubility (physchem [7]; fassif) was 24.5 µM (≈ 13.9 µg/mL) and the solubility (physchem [7]; fessif) was 8.8 µM (≈ 4.98 µg/mL). For the same compound, the microsomal CLint ([8]; m (mouse) liver microsomes, read-out: LM Clint) was 28 µL/min/mg and the “MDCK AB+inh” value (MDCK) was 16.2.

For `CCc1nc2ccc(Cl)cn2c1C(=O)NCc1ccc(N2CCC(c3ccc(OC(F)(F)F)cc3)CC2)cc1` [Compound Q203], the MIC50 (M. tuberculosis H37Rv) is given as 0.00028 µM (≈ 0.000156 µg/mL).
